# Experimental data published in patent publication US8431593B2, “Heteroaryl amide derivatives” (H. Lundbeck A/S, priority 2006, dated 2013).
# Molecular target: T1, P2X7 receptor (Homo sapiens, UniProt Q99572)
# T1 construct: host or cells: SH-SY5Y
# T1 sequence (Q99572 1-595): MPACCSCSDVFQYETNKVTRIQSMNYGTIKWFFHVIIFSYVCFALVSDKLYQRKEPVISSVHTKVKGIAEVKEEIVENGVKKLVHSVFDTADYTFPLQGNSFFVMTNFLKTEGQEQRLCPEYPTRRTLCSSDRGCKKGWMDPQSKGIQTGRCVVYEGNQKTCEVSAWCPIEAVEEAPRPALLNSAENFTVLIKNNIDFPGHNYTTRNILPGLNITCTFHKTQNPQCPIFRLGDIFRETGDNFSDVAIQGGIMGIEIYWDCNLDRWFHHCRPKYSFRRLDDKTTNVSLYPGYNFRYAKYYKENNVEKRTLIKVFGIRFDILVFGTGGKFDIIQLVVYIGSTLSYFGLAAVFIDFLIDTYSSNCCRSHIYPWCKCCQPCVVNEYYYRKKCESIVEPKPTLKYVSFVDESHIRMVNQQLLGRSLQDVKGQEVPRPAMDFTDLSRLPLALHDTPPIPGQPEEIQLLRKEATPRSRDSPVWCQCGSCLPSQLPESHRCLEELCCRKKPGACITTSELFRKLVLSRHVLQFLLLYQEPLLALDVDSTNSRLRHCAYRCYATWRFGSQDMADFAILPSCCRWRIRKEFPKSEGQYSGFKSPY
# Assay: P2X7 calcium mobilization assay, high throughput, antagonist activity (Example 4A)
# Assay type: cell-based
# Conditions: P2X7 calcium mobilization, Example 4A; 50% decrease in the fluorescence response of cells exposed to 80 μM of (2′(3′)-O-(4-benzoyl-benzoyl)adenosine 5′-triphosephate); read-out: IC50
# Summary of the method: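 FLIPR^TETRA calcium read-out: maximum RFU per well minus average no-agonist control, with agonist wells giving the average positive maximum. Cells seeded at 100,000/well one day ahead, dye-loaded 1 h, rinsed, then exposed to compound for 1 h at room temperature.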
row,SMILES,IC50
1,"CC(C)CC(CNC(=O)c1cccc2nc(C(C)N3CCOCC3)cn12)c1ccc(Cl)cc1 (stereo not drawn) [Compound 1037, N-[2-(4-chlorophenyl)-4-methylpentyl]-2-(1-morpholin-4-ylethyl) imidazo[1,2-a]pyridine-5-carboxamide]",< 2 µM
2,"CC(C)CC(CNC(=O)c1cccc2nc(CN3CCOCC3)cn12)c1ccc(Cl)cc1 (stereo not drawn) [Compound 1038, N-[2-(4-chlorophenyl)-4-methylpentyl]-2-(morpholin-4-ylmethyl) imidazo[1,2-a]pyridine-5-carboxamide]",< 2 µM
3,"CC(C)CC(CNC(=O)c1cccc2nc(CN3CC[C@@H](N(C)C)C3)cn12)c1ccc(Cl)cc1 (stereo partly drawn) [Compound 1039, N-[2-(4-chlorophenyl)-4-methylpentyl]-2-{[(3R)-3-(dimethylamino)pyrrolidin-1-yl]methyl} imidazo[1,2-a]pyridine-5-carboxamide]",< 2 µM
4,"O=C(NCC12CC3CC(CC(C3)C1)C2)c1cccc2nc(CCN3CCCC3)cn12 [Compound 1040, N-(adamantan-1-ylmethyl)-2-(2-pyrrolidin-1-ylethyl) imidazo [1,2-a]pyridine-5-carboxamide]",< 2 µM
5,"CC(C)CC(CNC(=O)c1cccc2nc(CCN3CCCC3)cn12)c1ccc(Cl)cc1 (stereo not drawn) [Compound 1041, N-[2-(4-chlorophenyl)-4-methylpentyl]-2-(2-pyrrolidin-1-ylethyl) imidazo[1,2-a]pyridine-5-carboxamide]",< 2 µM
6,"CC(C)CC(CNC(=O)c1cccc2nc(CCN3CCCC3)cn12)c1ccc(C(F)(F)F)cc1 (stereo not drawn) [Compound 1042, N-{4-methyl-2-[4-(Irifluoromethyl)phenyl]pentyl}-2-(2-pyrrolidin-1-ylethyl) imidazo[1,2-a]pyridine-5-carboxamide]",< 2 µM
7,"O=C(NCC1(c2ccc(C(F)(F)F)cc2)CCCCC1)c1cccc2nc(CN3CCCC3)cn12 [Compound 1044, 2-(pyrrolidin-1-ylmethyl)-N-({1-[4-(trifluoromethyl)phenyl]cyclohexyl}methyl) imidazo[1,2-a] pyridine-5-carboxamide]",< 2 µM
8,"O=C(NCC1(c2ccc(F)cc2)CCCCC1)c1cccc2nc(CN3CCCC3)cn12 [Compound 1045, N-{[1-(4-fluorophenyl)cyclohexyl]methyl}-2-(pyrrolidin-1-ylmethyl) imidazo[1,2-a]pyridine-5-carboxamide]",< 2 µM
9,"O=C(NCC1(c2ccc(Cl)c(F)c2)CCCCC1)c1cccc2nc(CN3CCCC3)cn12 [Compound 1046, N-{[1-(4-chloro-3-fluorophenyl)cyclohexyl]methyl}-2-(pyrrolidin-1-ylmethyl) imidazo[1,2-a]pyridine-5-carboxamide]",< 2 µM
10,"O=C(NCC1(c2ccc(Cl)cc2)CCCCC1)c1cccc2nc(CN3CCCC3)cn12 [Compound 1047, N-{[1-(4-chlorophenyl)cyclohexyl]methyl}-2-(pyrrolidin-1-ylmethyl) imidazo[1,2-a]pyridine-5-carboxamide]",< 2 µM
11,"Cc1ccc(C(CNC(=O)c2cccc3nc(CN4CCCC4)cn23)CC(C)C)cc1 (stereo not drawn) [Compound 1048, N-[4-methyl-2-(4-methylphenyl)pentyl]-2-(pyrrolidin-1-ylmethyl) imidazo [1,2-a] pyridine-5-carboxamide]",< 2 µM
12,"Cc1ccc(C2(CNC(=O)c3cccc4nc(CN5CCCC5)cn34)CCCCC2)cc1 [Compound 1049, N-{[1-(4-methylphenyl)cyclohexyl]methyl}-2-(pyrrolidin-1-ylmethyl) imidazo[1,2-a]pyridine-5-carboxamide]",< 2 µM
13,"CN1CCCC(NC(=O)Cc2cn3c(C(=O)NCC45CC6CC(CC(C6)C4)C5)cccc3n2)C1 (stereo not drawn) [Compound 1050, N-(adamantan-1-ylmethyl)-2-{2-[(1-methylpiperidin-3-yl)amino]-2-oxoethyl} imidazo[1,2-a]pyridine-5-carboxamide]",< 2 µM

# Results, then the molecule that gave them:
row,IC50,SMILES
1,< 2 µM,"CC(C)CC(CNC(=O)c1cccc2nccn12)c1ccc(C(F)(F)F)nc1 (stereo not drawn) [Compound 1051, N-{4-methyl-2-[6-(trifluoromethyl)pyridin-3-yl]pentyl} imidazo[1,2-a]pyridine-5-carboxamide]"
2,< 2 µM,"CC(C)CC(CNC(=O)c1cccc2ncc(Cl)n12)c1ccc(C(F)(F)F)nc1 (stereo not drawn) [Compound 1052, 3-chloro-N-{4-methyl-2-[6-(trifluoromethyl)pyridin-3-yl]pentyl} imidazo[1,2-a]pyridine-5-carboxamide]"
3,< 2 µM,"CC(C)CC(CNC(=O)c1cccc2nc(CN3CCOCC3)cn12)c1ccc(C(F)(F)F)nc1 (stereo not drawn) [Compound 1053, N-{4-methyl-2-[6-(trifluoromethyl)pyridin-3-yl]pentyl}-2-(morpholin-4-ylmethyl) imidazo[1,2-a]pyridine-5-carboxamide]"
4,< 2 µM,"O=C(NCC(c1ccc(Cl)cc1)N1CCCCC1)c1cccc2ncc(Cl)n12 (stereo not drawn) [Compound 1054, 3-chloro-N-[2-(4-chlorophenyl)-2-piperidin-1-ylethyl]imidazo[1,2-a]pyridine-5-carboxamide]"
5,< 2 µM,"O=C(NCC(c1ccc(Cl)cc1)N1CCOCC1)c1cccc2ncc(Cl)n12 (stereo not drawn) [Compound 1055, 3-chloro-N-[2-(4-chlorophenyl)-2-morpholin-4-ylethyl]imidazo[1,2-a]pyridine-5-carboxamide]"
6,< 2 µM,"O=C(NCC(c1ccc(Cl)cc1)N1CCCCC1)c1cccc2ncc(Br)n12 (stereo not drawn) [Compound 1056, 3-bromo-N-[2-(4-chlorophenyl)-2-piperidin-1-ylethyl]imidazo[1,2-a]pyridine-5-carboxamide]"
7,< 2 µM,"O=C(NCC(c1ccc(Cl)cc1)N1CCOCC1)c1cccc2ncc(Br)n12 (stereo not drawn) [Compound 1057, 3-bromo-N-[2-(4-chlorophenyl)-2-morpholin-4-ylethyl] imidazo[1,2-a] pyridine-5-carboxamide]"
8,< 2 µM,"O=C(NCC(c1ccc(C(F)(F)F)nc1)N1CCCCC1)c1cccc2ncc(Cl)n12 (stereo not drawn) [Compound 1058, 3-chloro-N-{2-piperidin-1-yl-2-[6-(trifluoromethyl)pyridin-3-yl]ethyl}imidazo[1,2-a]pyridine-5-carboxamide]"
9,< 2 µM,"CCN(Cc1cn2c(C(=O)NCC34CC5CC(CC(C5)C3)C4)cccc2n1)C(=O)OC(C)OC(C)=O (stereo not drawn) [Compound 1059, 1-{[({5-[(adamantan-1-ylmethyl)carbamoyl]imidazo [1,2-a]pyridin-2-yl}methyl)(ethyl)carbamoyl]oxy} ethyl acetate]"
10,< 2 µM,"CC(=O)OC(C)OC(=O)N[C@@H]1CCCN(C(=O)Cc2cn3c(C(=O)NCC45CC6CC(CC(C6)C4)C5)cccc3n2)C1 (stereo partly drawn) [Compound 1060, 1-({[(3R)-1-({5-[(adamantan-1-ylmethyl)carbamoyl]imidazo[1,2-a]pyridin-2-yl}acetyl)piperidin-3-yl]carbamoyl}oxy)ethyl acetate]"
11,< 2 µM,"CCOC(=O)c1cn2cc(C(=O)NCC34CC5CC(CC(C5)C3)C4)ccc2n1 [Compound 1061, ethyl 6-[(adamantan-1-ylmethyl)carbamoyl] imidazo [1,2-a]pyridine-2-carboxylate]"
12,< 2 µM,"O=C(NCC12CC3CC(CC(C3)C1)C2)c1ccc2nc(CCl)cn2c1 [Compound 1062, N-(adamantan-1-ylmethyl)-2-(chloromethyl) imidazo [1,2-a]pyridine-6-carboxamide]"
13,< 2 µM,"CCOC(=O)Cc1cn2cc(C(=O)NCC34CC5CC(CC(C5)C3)C4)ccc2n1 [Compound 1063, ethyl {6-[(adamantan-1-ylmethyl)carbamoyl]imidazo[1,2-a]pyridin-2-yl} acetate]"
14,< 2 µM,"O=C(NCC12CC3CC(CC(C3)C1)C2)c1ccn2cc(CCl)nc2c1 [Compound 1064, N-(adamantan-1-ylmethyl)-2-(chloromethyl)imidazo [1,2-a]pyridine-7-carboxamide]"
